These results are taken from US4853412A, “N-[[6-methoxy-5-(trifluoromethyl)-1-naphthalenyl]-[substituted imino]methyl]-n-methylglycines” (American Home Products Corporation, priority 1987, dated 1989).

The target of one assay is T1, aldose reductase (Bos taurus, UniProt P16116).
T1 construct: preparation of the enzyme from bovine lens; from tissue; host or cells: bovine lens
The experiment in a line: in vitro inhibition of aldose reductase from bovine lens (modified Hayman and Kinoshita procedure). The format is biochemical. To be noted: 10^-7 M. As to the method:
Only two minor reagent changes were made: (a) The rinsing mixture was an aqueous 5% (w/v) trichloroacetic acid solution and (b) the stock solution was prepared by dissolving 25 mg of dulcitol in 100 mL of an aqueous trichloroacetic acid solution. [N.B.: For each experiment the average value found in the tissue from rats fed the glucose diet was subtracted from the individual values found in the corresponding tissue in galactose-fed rats to obtain the amount of polyol accumulated.] […] In the present case the procedure of Hayman and Kinoshita was modified in that the final chromatography step was omitted in the preparation of the enzyme from bovine lens.

Assay [1] deals with lenses of rats fed galactose. The experiment in a line: galactosemic rats: lowering of galactitol (dulcitol) accumulation in the lens. The format is in vivo, rat (Sprague-Dawley). To be noted: four days, vs untreated galactosemic rats. The text has this:
(§1) The aldose reductase inhibiting property of the compounds of this invention and the utilization of the compounds in preventing, diminishing and alleviating diabetic complications by lowering polyols accumulation are demonstrable in experiments using galactosemic rats, see Dvornik et al, Science, 182, 1146 (1973). Such experiments are exemplified hereinbelow after the listing of the following general comments pertaining to these experiments:
(§2) (a) Four or more groups of six male rats, 50-70 g, Sprague-Dawley strain, were used. The first group, the control group, was fed a mixture of laboratory chow (rodent Laboratory Chow, Purina) and glucose at 20% (w/w %) concentration. The untreated galactosemic group and the drug-treated groups were fed a similar diet in which galactose is substituted for glucose. The test compound was either admixed to the diet or administered by gavage. In experiments involving compound administration in the diet, the average dose administered was calculated from the actual food intake of the animals in each group. The concentration of galactose in the diet of the treated groups was the same as that for the untreated galactosemic group.
(§3) (b) After four days, the animals were killed by decapitation. The eyeballs were removed and punctured with a razor blade; the freed lenses were rolled gently on filter paper and weighed. The sciatic nerves were dissected as completely as possible and weighed. Both tissues when frozen can be kept up to two weeks before being analyzed for galactitol.
(§4) (c) The polyol determination was performed by a modification of the procedure of M. Kraml and L. Cosyns, Clin. Biochem., 2,373 (1969). Only two minor reagent changes were made: (a) The rinsing mixture was an aqueous 5% (w/v) trichloroacetic acid solution and (b) the stock solution was prepared by dissolving 25 mg of dulcitol in 100 mL of an aqueous trichloroacetic acid solution. [N.B.: For each experiment the average value found in the tissue from rats fed the glucose diet was subtracted from the individual values found in the corresponding tissue in galactose-fed rats to obtain the amount of polyol accumulated.] The aldose reductase inhibiting effects of the compounds of formula (I) were also tested by employing an in vitro testing procedure similar to that described by S. Hayman and J. H. Kinoshita, J. Biol. Chem., 240, 877 (1965). In the present case the procedure of Hayman and Kinoshita was modified in that the final chromatography step was omitted in the preparation of the enzyme from bovine lens.
(§5) The figures under L and N represent the percentage decrease of galactitol accumulation in the tissues of the lens and sciatic nerve, respectively, for treated rats as compared to untreated rats.

Assay [2] has as its system sciatic nerves of rats fed galactose. The experiment in a line: galactosemic rats: lowering of galactitol (dulcitol) accumulation in the sciatic nerve. The format is in vivo, rat (Sprague-Dawley). The note with it: for % lowering dulcitol accumulation in vivo, N (sciatic nerve): four days, vs untreated galactosemic rats.
Description: as §1, §2, §3, §4, §5

As for `COc1ccc2c(C(=NC#N)N(C)CC(=O)O)cccc2c1C(F)(F)F` [Example 4, N-[(Cyanoimino)[6-methoxy-5-(trifluoromethyl)-1-naphthalenyl]methyl]-N-methylglycine], the inhibition at 0.1 µM against aldose reductase is 80%. The “% lowering dulcitol accumulation in vivo, L (lens)” value in assay [1] (26 mg/kg/day p.o.) and in assay [1] (100 mg/kg/day p.o.) was 0% in each case. Besides, the figures for the “% lowering dulcitol accumulation in vivo, N (sciatic nerve)” value in assay [2] (26 mg/kg/day p.o.) and in assay [2] (100 mg/kg/day p.o.) were 30% and 61%, respectively. Also, in assay [2] (100 mg/kg/day vs tolrestat at 6.4 mg/kg/day), the “lowering of polyol accumulation compared with tolrestat (in words)” value was “comparable results”.
Turning to `COc1ccc2c(C(=NS(=O)(=O)C(F)(F)F)N(C)CC(=O)O)cccc2c1C(F)(F)F` [Example 5, N-[[6-Methoxy-5-(trifluoromethyl)-1-naphthalenyl][[(trifluoromethyl)sulfonyl]imino]methyl]-N-methylglycine], at aldose reductase, the inhibition at 0.1 µM amounted to 69%. In assay [1] (56 mg/kg/day p.o.), the “% lowering dulcitol accumulation in vivo, L (lens)” value came to 0%. Further, in assay [2] (56 mg/kg/day p.o.), the “% lowering dulcitol accumulation in vivo, N (sciatic nerve)” value stood at 0%.
As for `COc1ccc2c(C(=NS(=O)(=O)c3ccc(Br)cc3)N(C)CC(=O)O)cccc2c1C(F)(F)F` [Example 6, N-[[[(4-Bromophenyl)sulfonyl]imino][6-methoxy-5-(trifluoromethyl)-1-naphthalenyl]methyl]-N-methylglycine], at 0.1 µM the inhibition at aldose reductase was 5%. Moreover, the “% lowering dulcitol accumulation in vivo, L (lens)” value in assay [1] (55 mg/kg/day p.o.) was determined as 0%. In assay [2] (55 mg/kg/day p.o.), the “% lowering dulcitol accumulation in vivo, N (sciatic nerve)” value is 0%.
Turning to `COc1ccc2c(C(=S)N(C)CC(=O)O)cccc2c1C(F)(F)F` [tolrestat, N-[[6-methoxy-5-(trifluoromethyl)-1-naphthalenyl]thioxomethyl]-N-methylglycine, reference compound], the “% lowering dulcitol accumulation in vivo, L (lens)” value in assay [1] (6.4 mg/kg/day p.o.) stood at 0%. The “% lowering dulcitol accumulation in vivo, N (sciatic nerve)” value in assay [2] (6.4 mg/kg/day p.o.) is reported as 50%.

Usually inhibition stands for the share of the control response that was lost under treatment.
